# Assay results from patent US20080287398A1, “COLD MENTHOL RECEPTOR-1 ANTAGONISTS” (priority 2007, published 2008).
# Key:
# [1] = target: T1, canine TRPM8 (Canis lupus familiaris, UniProt Q1A7N1); experiment: TRPM8 patch clamp assay (whole-cell, HEK293 cells); format: cell-based
# T1 construct: expressed in transfected cells
# Description: For patch clamp experiments, HEK293 cells stably transfected with canine TRPM8 were cultured in DMEM supplemented with 10% fetal bovine serum, 100 units/ml penicillin, 100 μg/ml streptomycin and 1 mg/ml G418. Cells were maintained at 37° C. and in 5% CO2.
# The extracellular solution contained (in mM): NaCl, 132; EGTA, 1; KCl, 5.4; MgCl2, 0.8; HEPES, 10; glucose, 10; pH=7.4. Recordings were performed using the conventional whole-cell patch clamp technique, 1-2 days after plating cells onto glass coverslips at densities appropriate for single cell recording. Currents were amplified by a patch clamp amplifier and filtered at 2 kHz (Axopatch 200B, Molecular Devices, Union City, Calif.). Menthol (100 μM) was applied to the cell at 0.5 ml/min via a gravity-fed perfusion system. Recordings involving menthol activation were performed at 22° C.
# In experiments where temperatures were varied, temperature ramps were generated by cooling the perfusate in an in-line cooler (Model SC-20, Warner Instruments, Hamden, Conn.) controlled by a temperature controller (Model CL-100, Warner Instruments). The temperature in the vicinity of the recorded cell was measured with a custom-made miniature thermo-microprobe connected to a monitoring thermometer (Model TH-8, Physitemp, Clifton, N.J.), and sampled using Digidata 1322A and pClamp 9.0 (Molecular Devices), as were the currents concurrently measured in the whole-cell patch clamp mode. The current was continuously sampled (at 100 Hz) at a holding potential of −60 mV.
# Compounds were diluted from 10 mM DMSO stocks (stored at −20° C.) into an extracellular solution either containing 100 μM menthol or subjecting to cooling. Increasing concentrations of a compound were applied to a cell in a cumulative manner and concentration-dependent responses were measured after steady-state activation was achieved by either 100 μM menthol or cooling to 10° C. A saturating concentration of a reference antagonist was applied at the end of an experiment (either in the presence of 100 μM menthol or 10° C. temperature) to establish the baseline from which all the other measurements were subtracted.
# Percentage inhibition by a compound was calculated as follows: 100×(1−Icomp/I0); where Icomp and I0 are steady-state current amplitudes in either the presence or absence of a concentration of the compound.
# [2] = test system: rats; experiment: Reversal of icilin-induced behaviors (wet-dog shakes) in rats; format: in vivo; settings: rat, 1 h post-icilin
# Description: In this paradigm, icilin-induced shaking was counted for 10 minutes followed by administration of a compound of Formula (I). The diminution of shaking behavior is represented as a percent inhibition relative to icilin-induced shakes in the absence of test compound administration, as described by the following formula: % Inhibition=[1−(WDS count following test compound dose/WDS count prior to test compound dose)]×100.
# [3] = target: T2, rat TRPM8 (Rattus norvegicus, UniProt Q8R455); experiment: In vitro rat TRPM8 functional assay (Ca2+ dye, FDSS, 100 nM icilin); format: cell-based; settings: HEK293 cells transiently transfected with rat TRPM8, read-out: rTRPM8 IC50
# T2 construct: the full-length cDNAs encoding human and rat TRPM8 were subcloned; expressed in transfected cells; host or cells: HEK293 (transient, FuGENE 6, pCI-NEO vector)
# Description: (§1) For functional expression of TRPM8, the full-length cDNAs encoding human and rat TRPM8 were subcloned into pCl-NEO mammalian expression vectors. The expression constructs were transiently transfected into HEK293 cells according to the FuGENE 6 transfection reagent® (ROCHE) instructions. HEK293 cells were routinely grown as monolayers in Dulbecco's minimum essential medium supplemented with 10% FBS, 1 mM L-glutamine, 100 units/mL penicillin and 100 ug/mL streptomycin. Cells were maintained in 5% CO2 at 37° C. […] Following incubation, plates were inserted into a FDSS instrument, where cells were challenged with a compound of Formula (I) (at varying concentrations) and intracellular Ca^2+ was measured for 5 min prior to the addition of 100 nM icilin. IC50 values for compounds of the present invention were determined from eight-point dose-response studies
# (§2) Maximal fluorescence intensity (FI) achieved upon addition of icilin was exported from the FDSS and further analyzed using GraphPad Prism 3.02 (Graph Pad Software Inc., CA, U.S.A.). […] The dose response curves from the average of quadruplicate wells for each data point were analyzed by using nonlinear regression of either sigmoidal dose response or sigmoidal dose response (variable slope). Finally, the IC50 values were calculated with the best-fit dose curve determined by Prism.
# [4] = target: T3, human TRPM8 (Homo sapiens, UniProt Q7Z2W7); experiment: In vitro human TRPM8 functional assay (Ca2+ dye, FDSS, 100 nM icilin); format: cell-based; settings: HEK293 cells transiently transfected with human TRPM8, read-out: hTRPM8 IC50
# T3 construct: the full-length cDNAs encoding human and rat TRPM8 were subcloned; expressed in transfected cells; host or cells: HEK293 (transient, FuGENE 6, pCI-NEO vector)
# Description: as §1, §2
# [5] = test system: male SD rats; experiment: Chronic constriction injury (CCI) model of neuropathic pain, acetone-induced hypersensitivity; format: in vivo; settings: rat; for ED50: po
# Description: Through the mesh floor a series of five applications of acetone (0.05 mL/application) was sprayed onto the bottom of the paw using a multidose syringe device. A positive response took the form of an abrupt withdrawal or lifting of the paw. The percentage of positive responses from the five trials represented the individual's overall response that was then averaged over the entire treatment group. […] An ascending dose response relationship (as in Table 10 below) was generated by addition of successive doses of test compound followed by re-assessment of behavior.
# [6] = IC50, mode of activation Menthol (100 μM), HEK293 cells stably transfected with canine TRPM8, 100 μM menthol, 22° C.
# T1 sequence (Q1A7N1 1-1104): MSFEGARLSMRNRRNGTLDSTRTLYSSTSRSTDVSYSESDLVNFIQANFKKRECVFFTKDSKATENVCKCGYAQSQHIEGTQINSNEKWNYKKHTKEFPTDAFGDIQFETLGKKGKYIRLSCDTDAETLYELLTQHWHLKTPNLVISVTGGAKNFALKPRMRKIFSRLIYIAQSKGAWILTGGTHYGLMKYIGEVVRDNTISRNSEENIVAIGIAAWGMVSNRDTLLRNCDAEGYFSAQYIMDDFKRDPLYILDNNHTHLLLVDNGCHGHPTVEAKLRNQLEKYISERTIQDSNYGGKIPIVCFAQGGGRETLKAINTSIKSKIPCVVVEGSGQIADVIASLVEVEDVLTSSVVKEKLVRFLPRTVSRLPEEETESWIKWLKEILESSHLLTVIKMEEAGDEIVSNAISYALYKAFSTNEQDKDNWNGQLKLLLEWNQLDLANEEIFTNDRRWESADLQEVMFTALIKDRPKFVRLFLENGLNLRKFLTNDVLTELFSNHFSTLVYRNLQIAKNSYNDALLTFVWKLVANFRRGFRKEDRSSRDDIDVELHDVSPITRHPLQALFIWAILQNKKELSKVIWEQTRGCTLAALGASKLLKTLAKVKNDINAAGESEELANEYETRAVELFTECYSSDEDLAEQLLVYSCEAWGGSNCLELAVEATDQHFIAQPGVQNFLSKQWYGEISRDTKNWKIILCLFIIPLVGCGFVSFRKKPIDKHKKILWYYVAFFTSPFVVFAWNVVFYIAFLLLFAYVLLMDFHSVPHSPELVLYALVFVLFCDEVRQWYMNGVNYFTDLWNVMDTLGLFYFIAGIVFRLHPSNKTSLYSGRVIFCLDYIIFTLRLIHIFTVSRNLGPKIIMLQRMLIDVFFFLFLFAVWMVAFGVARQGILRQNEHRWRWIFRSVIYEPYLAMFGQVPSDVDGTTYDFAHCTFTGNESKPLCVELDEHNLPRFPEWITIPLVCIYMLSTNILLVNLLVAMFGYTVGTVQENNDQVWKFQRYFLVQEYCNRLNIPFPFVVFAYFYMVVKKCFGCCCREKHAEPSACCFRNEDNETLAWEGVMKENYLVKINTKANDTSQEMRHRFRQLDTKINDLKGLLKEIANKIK
# T3 sequence (Q7Z2W7 whole entry): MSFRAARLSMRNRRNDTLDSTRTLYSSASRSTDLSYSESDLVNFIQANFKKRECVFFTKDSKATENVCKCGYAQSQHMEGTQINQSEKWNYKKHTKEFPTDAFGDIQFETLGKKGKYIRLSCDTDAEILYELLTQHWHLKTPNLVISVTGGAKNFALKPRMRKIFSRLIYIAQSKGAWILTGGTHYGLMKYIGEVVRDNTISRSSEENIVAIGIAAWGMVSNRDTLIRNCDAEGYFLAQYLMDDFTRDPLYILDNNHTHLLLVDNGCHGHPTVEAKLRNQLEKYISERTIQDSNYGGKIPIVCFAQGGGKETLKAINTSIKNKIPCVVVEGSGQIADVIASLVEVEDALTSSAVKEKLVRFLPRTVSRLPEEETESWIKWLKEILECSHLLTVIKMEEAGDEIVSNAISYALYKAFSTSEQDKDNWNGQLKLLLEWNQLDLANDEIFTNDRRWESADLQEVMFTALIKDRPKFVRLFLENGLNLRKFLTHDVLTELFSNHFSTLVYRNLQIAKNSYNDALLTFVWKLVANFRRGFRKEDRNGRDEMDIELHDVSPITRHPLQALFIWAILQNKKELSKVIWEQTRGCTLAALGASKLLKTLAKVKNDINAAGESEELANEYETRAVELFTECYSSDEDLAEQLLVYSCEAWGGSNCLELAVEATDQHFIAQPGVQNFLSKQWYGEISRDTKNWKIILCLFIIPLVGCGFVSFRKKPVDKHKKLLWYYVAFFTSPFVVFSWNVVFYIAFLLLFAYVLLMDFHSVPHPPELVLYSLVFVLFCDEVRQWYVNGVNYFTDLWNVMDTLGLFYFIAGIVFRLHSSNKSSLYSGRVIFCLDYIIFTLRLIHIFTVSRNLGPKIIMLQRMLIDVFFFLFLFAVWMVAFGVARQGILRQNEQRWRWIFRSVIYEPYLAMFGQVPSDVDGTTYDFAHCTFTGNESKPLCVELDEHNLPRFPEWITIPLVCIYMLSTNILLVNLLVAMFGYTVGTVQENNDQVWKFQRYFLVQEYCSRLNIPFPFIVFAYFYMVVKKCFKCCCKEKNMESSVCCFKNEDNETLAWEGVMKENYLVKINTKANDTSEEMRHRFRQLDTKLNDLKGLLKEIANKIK
# T2 sequence (Q8R455 whole entry): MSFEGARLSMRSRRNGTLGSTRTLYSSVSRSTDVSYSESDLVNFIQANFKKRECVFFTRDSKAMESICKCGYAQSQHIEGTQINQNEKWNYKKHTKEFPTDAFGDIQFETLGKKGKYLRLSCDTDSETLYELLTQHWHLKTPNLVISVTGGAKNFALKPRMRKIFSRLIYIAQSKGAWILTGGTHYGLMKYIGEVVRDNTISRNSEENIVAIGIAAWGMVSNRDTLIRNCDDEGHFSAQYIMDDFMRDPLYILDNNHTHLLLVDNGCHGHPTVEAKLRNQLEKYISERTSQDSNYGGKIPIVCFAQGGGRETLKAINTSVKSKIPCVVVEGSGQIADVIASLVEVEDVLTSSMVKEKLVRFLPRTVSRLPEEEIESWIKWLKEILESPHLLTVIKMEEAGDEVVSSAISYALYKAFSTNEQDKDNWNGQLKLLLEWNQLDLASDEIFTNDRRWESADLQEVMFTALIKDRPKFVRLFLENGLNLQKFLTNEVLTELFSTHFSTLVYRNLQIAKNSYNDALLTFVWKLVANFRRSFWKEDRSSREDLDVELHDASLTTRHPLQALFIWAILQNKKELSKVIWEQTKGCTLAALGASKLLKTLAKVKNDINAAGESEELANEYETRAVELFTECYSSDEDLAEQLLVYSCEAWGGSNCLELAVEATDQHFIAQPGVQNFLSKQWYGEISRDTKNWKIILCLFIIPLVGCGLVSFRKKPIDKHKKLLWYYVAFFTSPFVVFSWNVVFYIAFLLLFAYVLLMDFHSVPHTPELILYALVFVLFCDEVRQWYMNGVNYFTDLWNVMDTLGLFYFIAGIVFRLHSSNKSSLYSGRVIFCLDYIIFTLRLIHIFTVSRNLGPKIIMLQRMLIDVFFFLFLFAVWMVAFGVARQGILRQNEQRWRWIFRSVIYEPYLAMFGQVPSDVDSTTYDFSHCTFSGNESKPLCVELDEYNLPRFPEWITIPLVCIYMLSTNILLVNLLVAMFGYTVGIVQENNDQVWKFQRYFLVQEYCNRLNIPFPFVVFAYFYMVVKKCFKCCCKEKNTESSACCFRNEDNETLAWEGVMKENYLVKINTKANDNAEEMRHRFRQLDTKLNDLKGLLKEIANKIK
smiles,measurement,setting,value
"CC(C)OP(=O)(OC(C)C)[C@@H](Cc1ccc(F)c(C(F)(F)F)c1)c1sc2ccccc2c1Br [Cpd 242, (S)-[1-(3-Bromo-benzo[b]thiophen-2-yl)-2-(4-fluoro-3-trifluoromethyl-phenyl)-ethyl]-phosphonic acid diisopropyl ester]",IC50,[1]; [6],0.4 nM
same,% Inhibition,[2]; 30 mg/kg p.o.,79.9%
same,IC50,[3],0.056 nM
same,IC50,[4],0.049 nM
same,ED50,[5]; preRx 3 hr,18 mg/kg
same,% of Allodynic Baseline,"[5]; 3 mg/kg p.o., preRx 3 hr",15.0%
same,% of Allodynic Baseline,"[5]; 10 mg/kg p.o., preRx 3 hr",30.0%
same,% of Allodynic Baseline,"[5]; 30 mg/kg i.p., preRx 2 hr",63.3%
same,% of Allodynic Baseline,"[5]; 30 mg/kg p.o., preRx 3 hr",66.7%
same,% of Allodynic Baseline,"[5]; 100 mg/kg p.o., preRx 3 hr",86.7%
"CC(C)OP(=O)(OC(C)C)[C@@H](Cc1ccc(F)c(F)c1)c1sc2ccccc2c1Br [Cpd 234, (S)-[1-(3-Bromo-benzo[b]thiophen-2-yl)-2-(3,4-difluoro-phenyl)-ethyl]-phosphonic acid diisopropyl ester]",IC50,"[1]; IC50, mode of activation Cold (10° C.), HEK293 cells stably transfected with canine TRPM8, cooling to 10° C.",1.6 nM
same,IC50,[1]; [6],4.7 nM
same,ED50,[2]; po,28.5 mg/kg
same,% Inhibition,[2]; 10 mg/kg p.o.,24.4%
same,% Inhibition,[2]; 30 mg/kg p.o.,56.1%
same,% Inhibition,[2]; 100 mg/kg p.o.,75.1%
same,IC50,[3],0.053 nM
same,IC50,[4],0.054 nM
same,ED50,[5]; preRx 1 hr,14.8 mg/kg
same,% of Allodynic Baseline,"[5]; 3 mg/kg p.o., preRx 1 hr",16.7%
same,% of Allodynic Baseline,"[5]; 3 mg/kg p.o., preRx 2 hr",10.0%
same,% of Allodynic Baseline,"[5]; 10 mg/kg p.o., preRx 1 hr",51.7%
same,% of Allodynic Baseline,"[5]; 30 mg/kg p.o., preRx 1 hr",59.6%
same,% of Allodynic Baseline,"[5]; 30 mg/kg p.o., preRx 2 hr",56.7%
same,% of Allodynic Baseline,"[5]; 100 mg/kg p.o., preRx 1 hr",83.1%
same,% of Allodynic Baseline,"[5]; 100 mg/kg p.o., preRx 2 hr",93.3%
